Data as given in article PMC6150365, “Simultaneous Determination of Seven Components in Rat Plasma by the UPLC-MS/MS Method and Application of Pharmacokinetic Studies to SimiaoYong’an Decoction” (Molecules : A Journal of Synthetic Chemistry and Natural …, 2017).

Experiment: Pharmacokinetic study in rats after oral administration of SYD extract and its single and combined TCM extracts (UPLC-MS/MS of plasma)
Details: male, Sprague-Dawley, rat, plasma, po, n = 6; for AUC(0-t) / AUC(0-inf) / Cmax / MRT last / MRT inf / Tmax: rat plasma; for MRT last: MRT(0–t); for MRT inf: MRT(0–∞); for half-life: t1/2, rat plasma
[1] = 1.29 g/kg, oral AS extract 1.29 g/kg
[2] = 2.14 g·kg^−1 (extract), oral LJ + GU extract
[3] = 2.15 g/kg, oral LJ extract 2.15 g/kg
[4] = 2.43 g/kg, oral AS + GU extract 2.43 g/kg
[5] = 3.29 g·kg^−1 (extract), oral LJ + AS extract
[6] = 3.29 g·kg^−1 extract, oral LJ + AS extract
[7] = 4.5 g·kg^−1 (extract), oral LJ + SN extract
[8] = 4.5 g·kg^−1 extract, oral LJ + SN extract
[9] = 4.73 g/kg, oral LJ + SN + GU extract 4.73 g/kg
[10] = 5.43 g/kg, oral LJ + SN + AS extract 5.43 g/kg
[11] = 8.25 g/kg, oral SYD extract 8.25 g/kg

O=C(/C=C/c1ccc(O)c(O)c1)O[C@@H]1C[C@](O)(C(=O)O)C[C@@H](O)[C@H]1O [Chlorogenic acid, chlorogenic acid]
AUC(0-t) [1]: 1360 ± 120 ng·h/mL
AUC(0-inf) [1]: 2130 ± 670 ng·h/mL
Cmax [1]: 390 ± 110 ng/mL
MRT last [1]: 1.56 ± 0.67 h
MRT inf [1]: 4.28 ± 2.23 h
Tmax [1]: 0.89 ± 0.33 h
half-life [1]: 3.54 ± 0.98 h
AUC(0-inf) [2]: 2930 ± 1000 ng·h/mL
Cmax [2]: 1070 ± 190 ng/mL
MRT last [2]: 3.85 ± 0.88 h
MRT inf [2]: 65 ± 64.6 h
Tmax [2]: 1.18 ± 0.78 h
half-life [2]: 8.15 ± 2.49 h
AUC(0-t) (2.14 g·kg^−1 extract, oral LJ + GU extract): 1780 ± 290 ng·h/mL
AUC(0-t) [3]: 3940 ± 2120 ng·h/mL
AUC(0-inf) [3]: 5040 ± 2980 ng·h/mL
Cmax [3]: 2410 ± 830 ng/mL
MRT last [3]: 3.12 ± 0.75 h
MRT inf [3]: 24.7 ± 8.81 h
Tmax [3]: 1.11 ± 0.74 h
half-life [3]: 9.39 ± 2.87 h
AUC(0-t) [4]: 1150 ± 340 ng·h/mL
AUC(0-inf) [4]: 1980 ± 450 ng·h/mL
Cmax [4]: 290 ± 210 ng/mL
MRT last [4]: 1.78 ± 0.39 h
MRT inf [4]: 3.36 ± 2 h
Tmax [4]: 0.55 ± 0.48 h
half-life [4]: 2.78 ± 0.53 h
Cmax [5]: 1670 ± 480 ng/mL
MRT last [5]: 3.17 ± 0.75 h
MRT inf [5]: 37.6 ± 36.1 h
Tmax [5]: 1.36 ± 0.69 h
half-life [5]: 7.14 ± 1.59 h
AUC(0-t) [6]: 2820 ± 750 ng·h/mL
AUC(0-inf) [6]: 3770 ± 1220 ng·h/mL
MRT last [7]: 3.48 ± 0.86 h
MRT inf [7]: 46.8 ± 43.4 h
Tmax [7]: 1.36 ± 1.03 h
half-life [7]: 7.82 ± 2.6 h
AUC(0-t) [8]: 2800 ± 1160 ng·h/mL
AUC(0-inf) [8]: 4250 ± 2310 ng·h/mL
Cmax [8]: 1740 ± 750 ng/mL
AUC(0-t) [9]: 2190 ± 480 ng·h/mL
AUC(0-inf) [9]: 3410 ± 640 ng·h/mL
Cmax [9]: 1280 ± 510 ng/mL
MRT last [9]: 3.44 ± 0.29 h
MRT inf [9]: 69.3 ± 73.6 h
half-life [9]: 8.34 ± 1.07 h
AUC(0-t) [10]: 2550 ± 640 ng·h/mL
AUC(0-inf) [10]: 3690 ± 490 ng·h/mL
Cmax [10]: 1380 ± 370 ng/mL
MRT last [10]: 3.19 ± 0.32 h
MRT inf [10]: 59.5 ± 63.2 h
half-life [10]: 6.73 ± 1.7 h
AUC(0-t) [11]: 2540 ± 280 ng·h/mL
AUC(0-inf) [11]: 3650 ± 820 ng·h/mL
Cmax [11]: 1220 ± 80 ng/mL
MRT last [11]: 3.28 ± 0.5 h
MRT inf [11]: 52.6 ± 53.8 h
half-life [11]: 8.08 ± 1.67 h
half-life ([…], oral SN + AS + GU extract […]): 7.95 ± 2.46 h
